Data set [1] deals with T1, D(4) dopamine receptor (Homo sapiens, UniProt P21917).
T1 sequence (P21917 whole entry): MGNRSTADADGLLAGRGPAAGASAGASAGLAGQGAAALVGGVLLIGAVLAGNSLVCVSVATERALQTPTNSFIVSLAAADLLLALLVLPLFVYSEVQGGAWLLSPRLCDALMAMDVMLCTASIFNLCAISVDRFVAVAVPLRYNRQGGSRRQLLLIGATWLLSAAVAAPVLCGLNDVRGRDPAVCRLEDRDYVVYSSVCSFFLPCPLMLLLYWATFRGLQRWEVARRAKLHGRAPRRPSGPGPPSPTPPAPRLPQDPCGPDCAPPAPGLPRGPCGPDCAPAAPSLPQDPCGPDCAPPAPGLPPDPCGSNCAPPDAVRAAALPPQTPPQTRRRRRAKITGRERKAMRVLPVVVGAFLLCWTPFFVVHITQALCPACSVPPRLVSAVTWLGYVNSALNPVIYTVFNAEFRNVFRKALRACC
Kind of data set: Displacement of [3H]N-methylspiperone from human D4 receptor expressed in HEK293 cell membrane by competitive inhibition based analysis. In kind it is cell membranes. Background: In a radioligand displacement assay an active substance lowers the binding of a labelled ligand.

Data set [2] concerns the target D(1A) dopamine receptor (Homo sapiens, UniProt P21728). Briefly: Displacement of [3H]-SCH23390 from human D1 receptor expressed in HEK293 cell membrane at 10 uM by competitive inhibition based analysis. In kind it is cell membranes.
In data set [3] the target is D(2) dopamine receptor (Homo sapiens) (UniProt P14416). Kind of data set: Displacement of [3H]N-methylspiperone from human D2 receptor expressed in HEK293 cell membrane at 10 uM by competitive inhibition based analysis. Type of data set: cell membranes.
Sequence of D(2) dopamine receptor (Homo sapiens) (P14416 whole entry): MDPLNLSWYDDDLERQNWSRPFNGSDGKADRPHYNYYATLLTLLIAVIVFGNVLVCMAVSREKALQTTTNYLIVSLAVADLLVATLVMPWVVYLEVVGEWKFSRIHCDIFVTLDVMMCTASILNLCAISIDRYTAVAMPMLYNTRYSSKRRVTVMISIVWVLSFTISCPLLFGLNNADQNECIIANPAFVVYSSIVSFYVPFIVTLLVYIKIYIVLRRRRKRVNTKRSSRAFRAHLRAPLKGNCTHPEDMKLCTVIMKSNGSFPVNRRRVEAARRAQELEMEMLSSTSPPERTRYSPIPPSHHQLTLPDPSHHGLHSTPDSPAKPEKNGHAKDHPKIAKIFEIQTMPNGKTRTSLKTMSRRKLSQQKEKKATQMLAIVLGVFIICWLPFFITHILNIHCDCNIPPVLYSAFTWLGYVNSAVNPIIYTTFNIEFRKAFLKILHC
The target of data set [4] is T2, D(3) dopamine receptor (Homo sapiens, UniProt P35462). Kind of data set: Displacement of [3H]N-methylspiperone from human D3 receptor expressed in HEK293 cell membrane at 10 uM by competitive inhibition based analysis. In kind it is cell membranes.
T2 sequence (P35462 whole entry): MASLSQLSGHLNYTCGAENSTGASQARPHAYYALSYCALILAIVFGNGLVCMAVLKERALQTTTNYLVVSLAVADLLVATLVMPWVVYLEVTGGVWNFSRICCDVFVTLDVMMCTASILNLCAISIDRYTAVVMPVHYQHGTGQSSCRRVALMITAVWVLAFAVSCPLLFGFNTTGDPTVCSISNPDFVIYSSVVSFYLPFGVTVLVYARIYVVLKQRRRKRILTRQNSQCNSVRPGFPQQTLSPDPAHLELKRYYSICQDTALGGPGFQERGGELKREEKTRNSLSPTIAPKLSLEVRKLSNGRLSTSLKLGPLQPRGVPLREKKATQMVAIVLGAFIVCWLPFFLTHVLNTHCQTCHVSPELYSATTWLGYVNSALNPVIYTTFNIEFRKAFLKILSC
Data set [5] concerns the target D(1B) dopamine receptor (Homo sapiens, UniProt P21918). Briefly: Displacement of [3H]-SCH23390 from human D5 receptor expressed in HEK293 cell membrane at 10 uM by competitive inhibition based analysis. In kind it is cell membranes.
A short description of data set [6]: Protein binding in human plasma assessed as unbound fraction. Type of data set: ADME, cell-free.
Data set [7] in a line: Protein binding in mouse plasma assessed as unbound fraction. Type of data set: ADME, cell-free.
Data set [8] in a line: Half-life in rat at 0.25 mg/kg, iv measured for 24 hrs. Type of data set: ADME, organism-based. Conditions: in vivo.
A short description of data set [9]: Initial plasma concentration in rat at 0.25 mg/kg, iv. Type of data set: ADME, organism-based. The settings on record: in vivo, iv, 0.25 mg/kg.
Data set [10] is described as follows: Volume of distribution at steady state in rat at 0.25 mg/kg, iv measured for 24 hrs. In kind it is ADME, organism-based. The settings on record: in vivo.
Data set [11] is described as follows: AUC in rat at 0.25 mg/kg, iv measured for 24 hrs. Set-up: time 24 hrs, dose 0.25 mg/kg, route iv. Conditions: in vivo. Type of data set: ADME, organism-based.
Data set [12] in a line: Plasma concentration in rat at 0.25 mg/kg, iv measured on day 2 at 0.25 hrs post-dose. Type of data set: ADME, organism-based. The settings on record: time 2 day.
Data set [13] is described as follows: Drug uptake in rat brain at 0.25 mg/kg, iv measured on day 2 at 0.25 hrs post-dose. Type of data set: ADME, organism-based. The settings on record: time 2 day, read-out: Drug uptake.
Data set [14] in a line: Ratio of drug level in rat brain to plasma at 0.25 mg/kg, iv measured on day 2 at 0.25 hrs post-dose. Type of data set: ADME, organism-based. The settings on record: time 2 day, read-out: BPR.
Data set [15] addresses T3, D(4) dopamine receptor (Homo sapiens) (UniProt P21917).
T3 sequence (whole entry): T1 sequence (P21917 whole entry)
Kind of data set: Displacement of [3H]N-methylspiperone from human D4 receptor expressed in HEK293 cell membrane at 10 uM by competitive inhibition based analysis. Type of data set: cell membranes.

Data set [16] has as its target T2, D(3) dopamine receptor. Briefly: Displacement of [3H]N-methylspiperone from human D3 receptor expressed in HEK293 cell membrane by competitive inhibition based analysis. Type of data set: cell membranes.

A value given as a limit tells only on which side of the number the result lay.

Sequence of D(1B) dopamine receptor (P21918 whole entry): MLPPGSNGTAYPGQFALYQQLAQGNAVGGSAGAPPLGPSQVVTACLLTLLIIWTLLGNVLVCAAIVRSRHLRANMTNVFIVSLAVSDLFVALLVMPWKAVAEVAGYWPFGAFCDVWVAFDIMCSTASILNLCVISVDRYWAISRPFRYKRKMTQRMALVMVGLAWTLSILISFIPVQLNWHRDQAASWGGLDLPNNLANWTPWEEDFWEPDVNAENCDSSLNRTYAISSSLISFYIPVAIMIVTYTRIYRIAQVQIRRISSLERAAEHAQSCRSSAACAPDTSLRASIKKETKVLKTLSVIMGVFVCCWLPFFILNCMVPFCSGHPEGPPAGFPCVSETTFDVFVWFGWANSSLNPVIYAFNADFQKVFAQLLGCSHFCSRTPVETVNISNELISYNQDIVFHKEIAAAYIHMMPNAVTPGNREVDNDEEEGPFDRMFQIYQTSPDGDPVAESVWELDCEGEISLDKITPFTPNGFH
Sequence of D(1A) dopamine receptor (P21728 whole entry): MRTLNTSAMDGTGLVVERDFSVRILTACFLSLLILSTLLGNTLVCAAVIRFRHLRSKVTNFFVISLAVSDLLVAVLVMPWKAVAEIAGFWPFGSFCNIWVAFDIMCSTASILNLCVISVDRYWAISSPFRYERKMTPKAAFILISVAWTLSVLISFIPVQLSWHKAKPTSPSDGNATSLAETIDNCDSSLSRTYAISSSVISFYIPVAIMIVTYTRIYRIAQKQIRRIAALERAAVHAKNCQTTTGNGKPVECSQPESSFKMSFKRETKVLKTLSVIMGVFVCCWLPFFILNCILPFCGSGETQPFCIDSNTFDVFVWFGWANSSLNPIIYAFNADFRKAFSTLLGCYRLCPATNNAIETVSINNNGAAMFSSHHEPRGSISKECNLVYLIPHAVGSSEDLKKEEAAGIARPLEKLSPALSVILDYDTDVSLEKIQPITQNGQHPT

In turn, `Fc1ccc(COC2CCN(Cc3cn4ccccc4n3)CC2)cc1F` gave an IC50 in data set [1] of 339 nM. Also, in data set [1], the affinity corresponds to a Ki of 337 nM. Besides, the inhibition in [2], in data set [3], in [4] and in data set [5] was less than 50% each time. The Fu in [6] was 6.2%; in data set [7], 42.8%. The compound also showed a t1/2 in data set [8] of 0.9 h. Further, in [9], the C0 was determined as 49.4 ng/mL. In [10], this compound showed a Vdss of 6.4 L/kg. In addition, the AUC in [11] turned out to be 142 ng·h/mL. For the same compound, the concentration at 48 h amounted to 34.9 ng/mL in data set [12] and 232 ng/g in [13]. The Kp at 48 h in data set [14] was 6.6.
For the compound `Cc1cccc(CO[C@H]2CCCN(Cc3cn4ccccc4n3)C2)n1`, the inhibition is 22.5% in data set [15]; less than 50% in data set [2]; less than 50% in data set [3]; less than 50% in data set [4]; less than 50% in data set [5].
In the case of `Fc1cc(COC2CCN(Cc3cc4ccc(Cl)cc4[nH]3)CC2)ccc1Cl`, the IC50 in data set [1] was 324 nM. Also, the Ki in data set [1] came out at 323 nM; in [16] it was 557 nM. Also, the inhibition in [2] was less than 50%; in [3] it was less than 50%; in data set [4] (filed as antagonist) it was 76%; in data set [5] (filed as antagonist), 65%.
As for `Fc1cccc(CO[C@H]2CCCN(c3ccc(Cl)cc3)C2)c1`, the inhibition is -10% in data set [15]; less than 50% in data set [2]; less than 50% in data set [3]; 71% in data set [4] (filed as antagonist); less than 50% in data set [5]. In addition, the Ki in [16] was greater than 10000 nM.
In turn, `Cn1ncc2cc(CN3CCC(OCc4cccc(C(F)(F)F)c4)CC3)ccc21` had an IC50 in data set [1] of 200 nM. The inhibitory constant (Ki) is 200 nM in [1] and 923 nM in data set [16]. In addition, the inhibition in data set [2] was less than 50%; in data set [3], less than 50%; in data set [4] (filed as antagonist) it was 92%; in data set [5] it was less than 50%. Moreover, the Fu in data set [6] was found to be 1%; in [7], 5.7%.
In data set [1], `Cc1c(Cl)cccc1NC(=O)CN1CCC(OCc2ccc(Cl)c(F)c2)CC1` gave a 50% inhibitory concentration (IC50) of 437 nM. Besides, the Ki in data set [1] was found to be 441 nM; in data set [16], 2360 nM. Also, the inhibition in data set [2] was less than 50%; in [3] it was less than 50%; in data set [4] (filed as antagonist) it was 76.2%; in data set [5] it was less than 50%.
With `Cc1ccccc1CN1CCC[C@H](OCc2cccc(F)c2)C1`, the inhibition in data set [15] is 29.2%; in data set [2], less than 50%; in data set [3], less than 50%; in data set [4], less than 50%; in [5], less than 50%.
Take `Cn1cnc2cc(CN3CCC(OCc4cccc(C(F)(F)F)c4)CC3)ccc21`: the IC50 in data set [1] was 646 nM. Also, the affinity in data set [1], expressed as Ki, was 640 nM. The values for the Fu in data set [6] and in data set [7] were 1% and 5.7%, respectively. Moreover, in data set [8], the t1/2 was found to be 1.1 h. For the same compound, the C0 in data set [9] was 60.2 ng/mL. This compound also returned a Vdss in [10] of 6.3 L/kg. The compound further showed an AUC in data set [11] of 149 ng·h/mL. In addition, the concentration at 48 h in data set [12] was found to be 30.1 ng/mL; in [13] it was 214 ng/g. Besides, the Kp at 48 h in data set [14] came out at 7.2.
Take `Cc1ccccc1CO[C@H]1CCCN(Cc2ccc(Cl)cc2F)C1`: the inhibition in data set [15] is -1.6%; in [2] it was less than 50%; in data set [3], less than 50%; in [4] it was less than 50%; in data set [5] it was less than 50%.
On to `Fc1cccc(CO[C@H]2CCCN(Cc3ccc(Cl)cc3F)C2)c1`, for which the inhibition in data set [15] (filed as antagonist) is 44.9%; in data set [2], less than 50%; in data set [3], less than 50%; in data set [4], less than 50%; in data set [5], less than 50%.
As for `FC(F)(F)Oc1cccc(CO[C@H]2CCCN(Cc3ncc4ccccn34)C2)c1`, the inhibition in data set [15] (filed as antagonist) is 40.4%; in data set [2], less than 50%; in data set [3], less than 50%; in data set [4], less than 50%; in [5], less than 50%.
Take `Cc1ccc(CO[C@H]2CCCN(Cc3cccc(F)c3)C2)cc1`: the inhibition in data set [15] was 33.1%; in data set [2], less than 50%; in data set [3] it was less than 50%; in [4] it was less than 50%; in [5], less than 50%.
In the case of `Cc1ccccc1CO[C@H]1CCCN(Cc2ccc(Cl)c(Cl)c2)C1`, the inhibition is 43.9% in data set [15] (filed as antagonist); less than 50% in data set [2]; less than 50% in data set [3]; less than 50% in data set [4]; less than 50% in data set [5].
`Fc1ccc(COC2CCN(Cc3ccc4[nH]cnc4c3)CC2)cc1F` gave an IC50 in data set [1] of 4270 nM. The figures for the Ki in [1] and in data set [16] were 4280 nM and 4080 nM, respectively. Besides, the inhibition is less than 50% in data set [2], less than 50% in data set [3], 57% in data set [4] (filed as antagonist) and less than 50% in [5]. The Fu amounted to 22.9% in data set [6] and 40.1% in [7]. The same compound came in with a t1/2 in data set [8] of 1.2 h. The compound further had a Vdss in data set [10] of 19.2 L/kg. In data set [11], this compound registered an AUC of 65.6 ng·h/mL. Also, the concentration at 48 h in data set [12] was determined as 7 ng/mL; in [13], 112 ng/g. Also, the Kp at 48 h in data set [14] is 16.1.
In turn, `Fc1cc(COC2CCN(Cc3ncc4ccccn34)CC2)ccc1Cl` had a half-maximal inhibitory concentration (IC50) in [1] of 158 nM. For the same compound, in data set [1], the affinity corresponds to a Ki of 158 nM. Further, the inhibition in [2], in [3], in [4] and in [5] was less than 50% each time. Moreover, the Fu is 1% in data set [6] and 1.7% in data set [7].
In turn, `FC(F)(F)c1cccc(COC2CCN(Cc3ccc4[nH]cnc4c3)CC2)c1` had a half-inhibitory concentration (IC50) in data set [1] of 1820 nM. Moreover, the Ki in data set [1] stood at 1800 nM; in [16] it was 948 nM. The inhibition in data set [2] was less than 50%; in [3], less than 50%; in data set [4] (filed as antagonist), 83%; in data set [5], less than 50%. The Fu is 2.5% in data set [6] and 16.1% in data set [7].
For the compound `Cn1cnc2cc(CN3CCC(OCc4ccc(Cl)c(F)c4)CC3)ccc21`, the inhibition in data set [15] (filed as antagonist) was 48%.
`FC(F)(F)c1cccc(COC2CCN(Cc3cn4ccccc4n3)CC2)c1` gave an IC50 in data set [1] of 166 nM. In data set [1], this compound returned a Ki of 166 nM. Besides, the inhibition in data set [2], in data set [3], in data set [4] and in data set [5] was less than 50% in each case. Further, the Fu in data set [6] is 1.8%; in data set [7] it was 17.1%.
As to `Cc1cccc(CO[C@H]2CCCN(Cc3ncc4ccccn34)C2)n1`, the inhibition is 18.9% in data set [15]; less than 50% in [2]; less than 50% in data set [3]; less than 50% in [4]; less than 50% in data set [5].
Regarding `Cc1c(Cl)cccc1NC(=O)CN1CCC(OCc2cccc(C(F)(F)F)c2)CC1`, in data set [1], the IC50 is 1150 nM. Further, the values for the Ki in [1] and in data set [16] were 1160 nM and 2120 nM, respectively. Moreover, the inhibition in [2] was less than 50%; in [3] it was less than 50%; in data set [4] (filed as antagonist) it was 84%; in [5] it was less than 50%.
The compound `Cc1nc(CN2CCC(OCc3cccc(C(F)(F)F)c3)CC2)c2ccccn12` had an IC50 in data set [1] of 302 nM. Moreover, the Ki was determined as 309 nM in [1] and 896 nM in [16]. The inhibition in data set [2], in [3], in [4] and in data set [5] was less than 50% throughout. Also, the Fu worked out at 5.2% in data set [6] and 3.6% in data set [7].
For `COc1ccc(CO[C@H]2CCCN(Cc3cccc(C)c3)C2)cc1F`, the inhibition is 45.8% in data set [15] (filed as antagonist); less than 50% in data set [2]; less than 50% in [3]; less than 50% in data set [4]; less than 50% in data set [5].

As a reminder, the IC50 is the point on the concentration scale where inhibition reaches its midpoint. Lower therefore signals greater potency. For orientation: Ki means the equilibrium dissociation constant of an inhibitor or competing ligand from its target. Low values mean a stronger hold on the target, high ones a looser hold on the target. The term inhibition denotes the drop in the measured response relative to a control, in per cent. Usually Vdss stands for the apparent volume that relates the amount in the body to the concentration in plasma or blood. Low readings indicate confinement near the circulation, high ones extensive tissue distribution. A word on the AUC: it is the area under the concentration-time curve, a measure of exposure.

Source of the values: ChEMBL document CHEMBL5143585, “Discovery and characterization of benzyloxy piperidine based dopamine 4 receptor antagonists” (Bioorg Med Chem Lett, 2022).
